Experimental data as given in US9187465B2, “Oxazole tyrosine kinase inhibitors” (Sareum Limited, priority 2007, dated 2015).

Legend:
[1] = biological target: T1, human FLT4 (Homo sapiens, UniProt P35916); experiment: FLT4 kinase assay (DELFIA enzyme inhibition); format: biochemical; settings: read-out: FLT4 IC50
T1 construct: a construct expressing the human FLT4 (789-1207) with an amino terminal GST tag; host or cells: Sf9 insect cells (baculovirus)
Description: A GST-kinase fusion protein of 70 KDa was produced using sf9 baculovirus expression system, with a construct expressing the human FLT4 (789-1207) with an amino terminal GST tag. The protein was purified by affinity chromatography using glutathione-agarose followed by separation on a gel filtration column.
FLT4 enzyme activity is determined using a Dissociation Enhanced Lanthanide Fluorescent Immunoassay (DELFIA) with a peptide substrate derived from the MET (Tyr 1253) peptide […] with a core sequence […].
The amount of phosphorylated peptide produced is detected by means of a phospho-Tyrosine specific Europium-labelled antibody using Time-Resolved Fluorescence at Excitation 360-35 nm and Emission 620-35 nm.
Assay reactions are set up in a 25 uL final volume on a 96 well plate. […] The reaction is allowed to proceed for 30 minutes at room temperature before stopping with 100 uL Stop solution comprising of 100 mM EDTA, 1×BSA blocker in TBS (Perbio) and 0.05% Surfact-Amps20 (Perbio).
The stopped reaction is transferred to a black 96-well Neutravidin-coated plate (Perbio) and incubated for 30 minutes to capture the biotinylated peptide substrate. After washing wells 3 times with 200 uL TBS/T buffer, Anti-Phospho-Tyr-100 antibody labelled with Eu—N1 (Perkin Elmer AD0159) is added to all wells for 60 minutes at room temperature. After a repeat washing step, DELFIA Enhancement solution (Perkin Elmer) is added to all wells for 5 minutes and the fluorescence measured on a plate reader Analyst HT (Molecular Devices).
The % inhibition of the activity is calculated and plotted in order to determine the concentration of test compound required to inhibit 50% of the enzyme activity (IC50).

[2] = biological target: T2, human Aurora A (Homo sapiens, UniProt O14965); experiment: Aurora A kinase assay (DELFIA enzyme inhibition); format: biochemical; settings: read-out: Aurora A IC50
T2 construct: Histidine tag (N); host or cells: Sf9 insect cells (baculovirus)
T2 sequence (O14965 1-403): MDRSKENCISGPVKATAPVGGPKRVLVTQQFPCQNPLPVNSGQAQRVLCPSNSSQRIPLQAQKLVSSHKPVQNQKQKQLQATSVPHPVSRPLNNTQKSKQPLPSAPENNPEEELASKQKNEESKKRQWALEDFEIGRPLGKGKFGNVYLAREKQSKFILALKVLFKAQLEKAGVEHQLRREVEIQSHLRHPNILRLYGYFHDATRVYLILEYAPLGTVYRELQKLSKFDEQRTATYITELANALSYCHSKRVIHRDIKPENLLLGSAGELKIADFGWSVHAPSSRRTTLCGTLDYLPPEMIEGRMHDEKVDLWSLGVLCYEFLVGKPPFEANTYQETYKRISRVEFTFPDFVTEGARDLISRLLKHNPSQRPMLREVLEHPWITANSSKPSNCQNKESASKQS
Description: The protein was purified by one-step affinity chromatography using nickel-agarose […]
Assay reactions are set up in a 25 uL final volume on a 96 well plate. […] The reaction is allowed to proceed for 30 minutes at room temperature before stopping with 100 μL Stop solution comprising of 100 mM EDTA, 1×BSA blocker in TBS (Perbio) and 0.05% Surfact-Amps20 (Perbio).
The stopped reaction is transferred to a black 96-well Neutravidin-coated plate (Perbio) and incubated for 30 minutes to capture the biotinylated peptide substrate. […] After repeating the washing step, the plate is further incubated for one hour with Europium-labelled anti-rabbit antibody (Perkin Elmer AD0105). The wash step is repeated for a final time before DELFIA Enhancement solution (Perkin Elmer) is added to all wells for 5 minutes and the fluorescence measured on a plate reader Analyst HT (Molecular Devices).

T1 sequence (P35916 789-1207): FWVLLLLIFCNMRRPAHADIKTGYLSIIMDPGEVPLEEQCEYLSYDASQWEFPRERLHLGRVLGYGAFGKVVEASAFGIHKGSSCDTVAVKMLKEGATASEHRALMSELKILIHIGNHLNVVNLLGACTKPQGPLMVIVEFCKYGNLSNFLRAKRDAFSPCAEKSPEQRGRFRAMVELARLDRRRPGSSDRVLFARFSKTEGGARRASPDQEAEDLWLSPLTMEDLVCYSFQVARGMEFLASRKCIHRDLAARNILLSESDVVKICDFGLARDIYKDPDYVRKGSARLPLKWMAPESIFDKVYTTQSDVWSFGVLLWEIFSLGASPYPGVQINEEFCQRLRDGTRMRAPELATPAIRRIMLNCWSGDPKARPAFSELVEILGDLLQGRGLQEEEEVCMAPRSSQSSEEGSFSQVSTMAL

IC50 [1]	IC50 [2]	Structure (SMILES)
< 10 µM	< 10 µM	NC(=O)c1nc(-c2c(F)cccc2F)oc1Nc1ccccc1 [Example O-1, 2-(2,6-difluorophenyl)-5-(phenylamino)oxazole-4-carboxamide]
< 10 µM	< 10 µM	CS(=O)(=O)c1cccc(Nc2oc(-c3c(F)cccc3F)nc2C(N)=O)c1 [Example Q-4, 2-(2,6-difluorophenyl)-5-(3-(methylsulfonyl)phenylamino)oxazole-4-carboxamide]
< 10 µM	< 100 µM	COc1ccccc1Nc1oc(-c2c(F)cccc2F)nc1C(N)=O [Example Q-5, 2-(2,6-difluorophenyl)-5-(2-methoxyphenylamino)oxazole-4-carboxamide]
< 100 µM	< 100 µM	COc1cccc(Nc2oc(-c3c(F)cccc3F)nc2C(N)=O)c1 [Example Q-6, 2-(2,6-difluorophenyl)-5-(3-methoxyphenylamino)oxazole-4-carboxamide]
< 10 µM	< 10 µM	NC(=O)c1nc(-c2c(F)cccc2F)oc1Nc1ccc(N2CCC(N)CC2)cc1 [Example Q-17, 5-(4-(4-aminopiperidin-1-yl)phenylamino)-2-(2,6-difluorophenyl)oxazole-4-carboxamide]
< 10 µM	< 10 µM	NCC1CCN(c2ccc(Nc3oc(-c4c(F)cccc4F)nc3C(N)=O)cc2)CC1 [Example Q-18, 5-(4-(4-(aminomethyl)piperidin-1-yl)phenylamino)-2-(2,6-difluorophenyl)oxazole-4-carboxamide]
< 10 µM	< 100 µM	COc1ccc(Nc2oc(-c3c(F)cccc3F)nc2C(N)=O)cc1OC [Example Q-39, 2-(2,6-difluorophenyl)-5-(3,4-dimethoxyphenylamino)oxazole-4-carboxamide]
< 100 µM	< 100 µM	NC(=O)c1nc(-c2c(F)cccc2F)oc1Nc1ccc2c(c1)OCO2 [Example Q-41, 5-(benzo[d][1,3]dioxol-5-ylamino)-2-(2,6-difluorophenyl)oxazole-4-carboxamide]
< 10 µM	< 100 µM	NC(=O)c1nc(-c2c(F)cccc2F)oc1Nc1ccc(OC(F)(F)F)cc1 [Example Q-42, 2-(2,6-difluorophenyl)-5-(4-(trifluoromethoxy)phenylamino)oxazole-4-carboxamide]
< 10 µM	< 100 µM	CS(=O)(=O)c1ccc(Nc2oc(-c3c(F)cccc3F)nc2C(N)=O)c(F)c1 [Example Q-43, 2-(2,6-difluorophenyl)-5-(2-fluoro-4-(methylsulfonyl)phenylamino)oxazole-4-carboxamide]
< 10 µM	< 100 µM	CS(=O)(=O)c1ccc(F)c(Nc2oc(-c3c(F)cccc3F)nc2C(N)=O)c1 [Example Q-44, 2-(2,6-difluorophenyl)-5-(2-fluoro-5-(methylsulfonyl)phenylamino)oxazole-4-carboxamide]
< 10 µM	< 10 µM	NC(=O)c1nc(-c2c(F)cccc2F)oc1Nc1cccnc1 [Example Q-45, 2-(2,6-difluorophenyl)-5-(pyridin-3-ylamino)oxazole-4-carboxamide]
< 10 µM	< 10 µM	NC(=O)c1nc(-c2c(F)cccc2F)oc1Nc1ccc(C2CCNCC2)cc1 [Example Q-46, 2-(2,6-difluorophenyl)-5-(4-(piperidin-4-yl)phenylamino)oxazole-4-carboxamide]
< 10 µM	< 10 µM	NC(=O)c1nc(-c2c(F)cccc2F)oc1Nc1ccc(N2CCOCC2)nc1 [Example Q-48, 2-(2,6-difluorophenyl)-5-(6-morpholinopyridin-3-ylamino)oxazole-4-carboxamide]
< 10 µM	< 10 µM	CN1CCN(c2ccc(Nc3oc(-c4c(F)cccc4F)nc3C(N)=O)cn2)CC1 [Example Q-49, 2-(2,6-difluorophenyl)-5-(6-(4-methylpiperazin-1-yl)pyridin-3-ylamino)oxazole-4-carboxamide]
< 10 µM	< 10 µM	NC(=O)c1nc(-c2c(F)cccc2F)oc1Nc1ccc(C(=O)NCC2CCNCC2)cc1 [Example Q-50, 5-(4-((piperidin-4-ylmethyl)carbamoyl)phenylamino)-2-(2,6-difluorophenyl)oxazole-4-carboxamide]
< 10 µM	< 10 µM	NCCCNC(=O)c1ccc(Nc2oc(-c3c(F)cccc3F)nc2C(N)=O)cc1 [Example Q-51, 5-(4-((3-aminopropyl)carbamoyl)phenylamino)-2-(2,6-difluorophenyl)oxazole-4-carboxamide]
< 10 µM	< 10 µM	NCCNC(=O)c1ccc(Nc2oc(-c3c(F)cccc3F)nc2C(N)=O)cc1 [Example Q-52, 5-(4-((2-aminoethyl)carbamoyl)phenylamino)-2-(2,6-difluorophenyl)oxazole-4-carboxamide]

Further lines, the compound ahead of its results:

Structure (SMILES)	IC50 [1]	IC50 [2]
NC(=O)c1nc(-c2c(F)cccc2F)oc1-c1ccc(NCCN2CCCCC2)cc1 [Example F-32, 2-(2,6-difluorophenyl)-5-(4-(2-(piperidin-1-yl)ethylamino)phenyl)oxazole-4-carboxamide]	< 10 µM	< 10 µM
CN(C)CCNc1ccc(-c2oc(-c3c(F)cccc3F)nc2C(N)=O)cc1 [Example F-33, 2-(2,6-difluorophenyl)-5-(4-(2-(dimethylamino)ethylamino)phenyl)oxazole-4-carboxamide]	< 10 µM	< 10 µM
NC(=O)c1nc(-c2c(F)cccc2F)oc1-c1ccc(NCCN2CCOCC2)cc1 [Example F-34, 2-(2,6-difluorophenyl)-5-(4-(2-morpholinoethylamino)phenyl)oxazole-4-carboxamide]	< 10 µM	< 10 µM
NC(=O)c1nc(-c2cccnc2)oc1-c1ccc(N2CCNCC2)cc1 [Example M-13, 5-(4-(piperazin-1-yl)phenyl)-2-(pyridin-3-yl)oxazole-4-carboxamide]	< 10 µM	< 10 µM
NC(=O)c1nc(-c2ccncc2)oc1-c1ccc(N2CCNCC2)cc1 [Example M-14, 5-(4-(piperazin-1-yl)phenyl)-2-(pyridin-4-yl)oxazole-4-carboxamide]	< 10 µM	< 10 µM
NC(=O)c1nc(-c2ccc3[nH]ccc3c2)oc1-c1ccc(N2CCNCC2)cc1 [Example M-15, 2-(1H-indol-5-yl)-5-(4-(piperazin-1-yl)phenyl)oxazole-4-carboxamide]	< 10 µM	< 10 µM
NC(=O)c1nc(-c2ccc3cc[nH]c3c2)oc1-c1ccc(N2CCNCC2)cc1 [Example M-16, 2-(1H-indol-6-yl)-5-(4-(piperazin-1-yl)phenyl)oxazole-4-carboxamide]	< 10 µM	< 10 µM
NC(=O)c1nc(-c2ccnc3[nH]ccc23)oc1-c1ccc(N2CCNCC2)cc1 [Example M-18, 5-(4-(piperazin-1-yl)phenyl)-2-(1H-pyrrolo[2,3-b]pyridin-4-yl)oxazole-4-carboxamide]	< 10 µM	< 10 µM
COc1ccc(-c2oc(-c3cc[nH]n3)nc2C(N)=O)cc1 [Example N-1, 5-(4-methoxyphenyl)-2-(1H-pyrazol-5-yl)oxazole-4-carboxamide]	< 10 µM	< 10 µM
COc1ccc(-c2oc(-c3cccc(C)c3)nc2C(N)=O)cc1 [Example N-10, 5-(4-methoxyphenyl)-2-m-tolyloxazole-4-carboxamide]	< 100 µM	< 100 µM
